Our source for the AC1.4 values is US11780826B2 (Amgen Inc., priority 2017, dated 2023).

The subject of the assay is Bovine cardiac myofibrils. Kind of assay: In vitro model of dose-dependent myofibril ATPase modulation (AC1.4, pyruvate kinase/lactate dehydrogenase-coupled ATPase assay at pCa25). The format is biochemical. Particulars: concentration at which ATPase activity was 1.4-fold higher than the bottom of the dose curve, mean of a minimum of two independent tests. A digest of the protocol:
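Bovine cardiac myofibrils, detergent-treated; 0.25-1.0 mg/ml. Buffer: K-PIPES 12 mM, MgCl2 2 mM, DTT 1 mM, BSA 0.1 mg/ml, pH 6.80, 22° C; Ca2+ set by EGTA/CaCl2. ATP 1 mM, NADH/PEP-coupled, A340. 4-parameter fit; n≥2.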
With `O=C(N[C@@H](c1ccc(C(F)(F)F)cc1F)C1CC1)[C@H]1CCCN1C(=O)c1cccc(-c2cc[nH]n2)c1` [Example 745, N-((R)-cyclopropyl(2-fluoro-4-(trifluoromethyl)phenyl)methyl)-1-(3-(1H-pyrazol-3-yl)benzoyl)-D-prolinamide], the AC1.4 turned out to be 7.244 µM.
As for `CS(=O)(=O)c1cccc(C(=O)N2CC3(CCC3)[C@@H]2C(=O)N[C@@H](c2ccc(C(F)(F)F)cc2F)C2CC2)c1` [Example 475, (1R)-N-((R)-cyclopropyl(2-fluoro-4-(trifluoromethyl)phenyl)methyl)-2-(3-(methylsulfonyl)benzoyl)-2-azaspiro[3.3]heptane-1-carboxamide], the figure is 1.866 µM.
Take `N#CC1CN(S(=O)(=O)c2cccc(C(=O)N3CCC[C@@H]3C(=O)NCc3ccc(C(F)(F)F)cc3F)c2)C1` [Example 42, 1-((3-((3-cyano-1-azetidinyl)sulfonyl)phenyl)carbonyl)-N-(2-fluoro-4-(trifluoromethyl)benzyl)-D-prolinamide]: the AC1.4 was found to be 0.04293 µM.
With `CS(=O)(=O)c1ccnc(C(=O)N2[C@@H](C(=O)N[C@@H](c3ccc(C(F)(F)F)cc3F)C3CC3)C[C@H]3C[C@H]32)c1` [Example 444, (1R,3R,5R)-N-((R)-cyclopropyl(2-fluoro-4-(trifluoromethyl)phenyl)methyl)-2-(4-(methylsulfonyl)picolinoyl)-2-azabicyclo[3.1.0]hexane-3-carboxamide] the figure was 1.547 µM; with `N#CC1CN(S(=O)(=O)c2cccc(C(=O)N3CCC[C@@H]3C(=O)N[C@H](CO)c3ccc(C(F)(F)F)cc3)c2)C1` [Example 31, 1-(3-((3-cyano-1-azetidinyl)sulfonyl)benzoyl)-N-((1S)-2-hydroxy-1-(4-(trifluoromethyl)phenyl)ethyl)-D-prolinamide], 0.03275 µM.
`N#CC1CN(S(=O)(=O)N2CCC[C@H](C(=O)N3CCC[C@@H]3C(=O)NCc3ccc(C(F)(F)F)cc3F)C2)C1` [Example 62, 1-(((3S)-1-((3-cyano-1-azetidinyl)sulfonyl)-3-piperidinyl)carbonyl)-N-(2-fluoro-4-(trifluoromethyl)benzyl)-D-prolinamide] returned an AC1.4 of 0.07198 µM.
`CCS(=O)(=O)c1cc(C(=O)N2[C@@H](C(=O)N[C@@H](c3cc(F)c(Cl)cc3F)C3CC3)C[C@H]3C[C@H]32)ccn1` [Example 389, (1R,3R,5R)-N-((R)-(4-chloro-2,5-difluorophenyl)(cyclopropyl)methyl)-2-((2-(ethylsulfonyl)-4-pyridinyl)carbonyl)-2-azabicyclo[3.1.0]hexane-3-carboxamide] registered an AC1.4 of 1.2325 µM.
With `CC[C@@H](NC(=O)[C@H]1CCCN1C(=O)c1cccc(S(=O)(=O)N2CC(C#N)C2)c1)c1ccc(C(F)(F)F)cc1F` [Example 12, 1-(3-((3-cyano-1-azetidinyl)sulfonyl)benzoyl)-N-((1R)-1-(2-fluoro-4-(trifluoromethyl)phenyl)propyl)-D-prolinamide] the figure was 0.0216 µM.
As for `CS(=O)(=O)c1cncc(C(=O)N2CCC[C@@H]2C(=O)N[C@@H](c2cc(F)c(Cl)cc2F)C2CC2)c1` [Example 362, N-((R)-(4-chloro-2,5-difluorophenyl)(cyclopropyl)methyl)-1-((5-(methylsulfonyl)-3-pyridinyl)carbonyl)-D-prolinamide], the figure is 1.0375 µM.
Molecule `N#CC1CN(S(=O)(=O)N2CCC[C@H](C(=O)N3C[C@H](F)C[C@@H]3C(=O)NCc3ccc(C(F)(F)F)cc3)C2)C1` [Example 216, (4R)-1-(((3S)-1-((3-cyano-1-azetidinyl)sulfonyl)-3-piperidinyl)carbonyl)-4-fluoro-N-(4-(trifluoromethyl)benzyl)-D-prolinamide] displayed an AC1.4 of 0.4746 µM.
With `O=C(N[C@@H](c1cc(F)c(C(F)(F)F)cc1F)C1CC1)[C@H]1C[C@H]2C[C@H]2N1C(=O)c1ccnc(C(F)(F)F)c1` [Example 225, (1R,3R,5R)-N-((R)-cyclopropyl(2,5-difluoro-4-(trifluoromethyl)phenyl)methyl)-2-((2-(trifluoromethyl)-4-pyridinyl)carbonyl)-2-azabicyclo[3.1.0]hexane-3-carboxamide] the figure was 0.4889 µM.
With `CS(=O)(=O)c1ccnc(C(=O)N2CCC[C@@H]2C(=O)N[C@@H](c2ccc(C(F)(F)F)cc2F)C2CC2)c1` [Example 526, N-((R)-cyclopropyl(2-fluoro-4-(trifluoromethyl)phenyl)methyl)-1-((4-(methylsulfonyl)-2-pyridinyl)carbonyl)-D-prolinamide] the figure was 2.5923 µM; with `C[C@H](NC(=O)[C@@H](C)N(C)C(=O)c1cccc(S(=O)(=O)N2CC(C#N)C2)c1)c1ccc(Cl)cc1` [Example 331, N-((1R)-2-(((1S)-1-(4-chlorophenyl)ethyl)amino)-1-methyl-2-oxoethyl)-3-((3-cyano-1-azetidinyl)sulfonyl)-N-methylbenzamide], 0.8976 µM.
`CS(=N)(=O)c1cccc(C(=O)N2[C@@H](C(=O)N[C@@H](c3cc(F)c(Cl)cc3F)C3CC3)C[C@H]3C[C@H]32)c1` (stereo partly drawn) [Example 752, (1R,3R,5R)—N—((R)-(4-chloro-2,5-difluorophenyl)(cyclopropyl)methyl)-2-(3-(S-methylsulfonimidoyl)benzoyl)-2-azabicyclo[3.1.0]hexane-3-carboxamide] displayed an AC1.4 of 7.417 µM.
On to `CC(NC(=O)[C@H]1CCCN1C(=O)[C@H]1CCCN(S(=O)(=O)N2CC(C#N)C2)C1)c1cccc(F)c1F` (stereo partly drawn) [Example 763, (2R)-1-((S)-1-((3-cyanoazetidin-1-yl)sulfonyl)piperidine-3-carbonyl)-N-(1-(2,3-difluorophenyl)ethyl)pyrrolidine-2-carboxamide], for which the AC1.4 was 7.879 µM.
`C[C@@H](NC(=O)[C@H]1CCCN1C(=O)c1cccc(S(=O)(=O)N2CC(C#N)C2)c1)c1ccc(Cl)cc1` [Example 71, N-((1R)-1-(4-chlorophenyl)ethyl)-1-((3-((3-cyano-1-azetidinyl)sulfonyl)phenyl)carbonyl)-D-prolinamide] yielded an AC1.4 of 0.08898 µM.
With `O=C(NCc1ccc(C(F)(F)F)cc1)[C@H]1CCCN1C(=O)[C@H]1CCCN(S(=O)(=O)N2CC(c3ccc(F)cc3)C2)C1` [Example 477, 1-(((3S)-1-((3-(4-fluorophenyl)-1-azetidinyl)sulfonyl)-3-piperidinyl)carbonyl)-N-(4-(trifluoromethyl)benzyl)-D-prolinamide] the figure was 2.0765 µM.
With `Cc1cc(C(=O)N2[C@@H](C(=O)N[C@@H](c3cc(F)c(C(F)(F)F)cc3F)C3CC3)C[C@H]3C[C@H]32)ccn1` [Example 717, (1R,3R,5R)-N-((R)-cyclopropyl(2,5-difluoro-4-(trifluoromethyl)phenyl)methyl)-2-((2-methyl-4-pyridinyl)carbonyl)-2-azabicyclo[3.1.0]hexane-3-carboxamide] the figure was 6.259 µM; with `N#CC1CN(S(=O)(=O)N2CCN[C@H](C(=O)N3CCC[C@@H]3C(=O)NCc3ccc(Cl)cc3F)C2)C1` [Example 290, N-(4-chloro-2-fluorobenzyl)-1-(((2S)-4-((3-cyano-1-azetidinyl)sulfonyl)-2-piperazinyl)carbonyl)-D-prolinamide], 0.7542 µM.
